Experimental data taken from US20210369714A1, “Prevention and Treatment of Osteoarthritis by Inhibition of Insulin Growth Factor-1 Signaling” (The Regents of the University of California, priority 2018, published 2021).

System: ATDC5 cells
Assay: IGF1 stimulated MMP-9/MMP-13 expression in chondrocytes (quantitative real-time PCR)
Assay type: cell-based
Conditions: preliminary dose finding experiments, free inhibitor, data not shown
Description: Here, we investigated the therapeutic role of the IGF1R inhibitor (NVP-AEW541) in PTOA development. NVP-AEW541 (IGF1Ri) was incorporated into the polyethylene glycol dimethacrylate (PEG-DMA) hydrogel carriers (microrods) for prolonged local delivery in the joint space following ACL rupture (ACLR). […] The left knee served as the control (CON). 1 day after the TCO, vehicle (Veh) or microrods loaded with inhibitor (IGF1Ri/rod) was injected into the injured knee. […] As determined by μCT, compared with the CON knee, ACLR decreased BV/TV (24%) in the subchondral bone, while the IGF1Ri/rod treatment (Tx) prevented the bone loss. […] As indicated by IHC, ACLR increased the number of PCNA positive articular chondrocytes and MMP-13 production in the Veh-treated injured knee, but these effects were blunted in the IGF1Ri-treated injured knee. Moreover, ACLR increased the production of VEGF, resulting in vessel formation within articular cartilage (as indicated by CD31) in the Veh -treated injured knee, but these effects were blocked in the IGF1Ri-treated injured knee.
FIG. 7. […] The mRNA levels of MMP-9 (upper panel) and MMP-13 (lower panel) were determined by quantitative real-time PCR. […] Results are expressed as percentage of L-19 (house keeper gene) expression (mean±SD) of triplicate determinations. *: p<0.05 IGF-1 treated cultures vs. vehicle treated cultures.

Question: For `Cl.Cl.Nc1ncnc2c1c(-c1cccc(OCc3ccccc3)c1)cn2[C@H]1C[C@@H](CN2CCC2)C1` [NVP-AEW541, 7-[cis-3-(1-azetidinylmethyl)cyclobutyl]-5-[3-(phenylmethoxy)phenyl]-7H-pyrrolo[2,3-d]pyrimidin-4-amine, dihydrochloride], which “blocking IGF1 stimulated MMP9 and MMP13 expression” value is on record?
Answer: highly effective
